Experimental data as given in patent publication US20250084058A1, “PHENYLPYRAZOLE COMPOUND AND APPLICATION THEREOF” (priority 2022, published 2025).
Like-named read-outs stand apart in the source and are kept apart here.

Tested on: Plutella xylostella
Experiment: Activity determination of killing Plutella xylostella (Airbrush spray, cabbage leaf discs)
Assay type: in vivo
Conditions: foliar; for mortality at 0.3125 µg/mL: read-out: Mortality (%, on 3rd day after administration) 0.3125 mg/L; for mortality at 0.625 µg/mL: read-out: Mortality (%, on 3rd day after administration) 0.625 mg/L; for mortality at 1.25 µg/mL: read-out: Mortality (%, on 3rd day after administration) 1.25 mg/L
Description: The compounds to be tested were dissolved in a mixed solvent of acetone/methanol (1:1) and then diluted to desired concentrations with water containing 0.1% (wt) Tween 80.
With Mythimna separata and Plutella xylostella as targets, the activity was determined by Airbrush spray method.
Determination method: Cabbage leaves were punched into leaf discs with the diameter of 2 cm by a puncher, the pressure of Airbrush spray treatment is 10 psi (about 0.7 kg/cm^2), and the compounds to be tested were sprayed onto the front and back surfaces of each leaf disc at a liquid amount of 0.5 mL. After drying in the shade, 10 3rd instar larvae were inoculated to each treatment, and each treatment was repeated for 3 times. After the treatment, the larvae were placed in an observation room for culture at 25° C. with relative humidity of 60-70%. On 3rd day after administration, the number of surviving larvae was investigated, and the mortality was calculated.
Some compounds of the present disclosure and control compounds were selected to carry out parallel comparative experiments of the insecticidal activity against Plutella xylostella (on 3rd day after administration), and the determination method was the same as above.

SMILES | mortality at 0.3125 µg/mL [%] | mortality at 0.625 µg/mL [%] | mortality at 1.25 µg/mL [%] | mortality at 0.3125 µg/mL (0.3125 mg/L, parallel comparative experiment, 3rd day after administration) [%] | mortality at 0.625 µg/mL (0.625 mg/L, parallel comparative experiment, 3rd day after administration) [%] | mortality at 1.25 µg/mL (1.25 mg/L, parallel comparative experiment, 3rd day after administration) [%]
N#CC1(NC(=O)c2cc(-c3cnn(-c4c(Cl)cc(C(F)(C(F)(F)F)C(F)(F)F)cc4Cl)c3)cnc2Cl)CC1 [CK3, reference compound] | 30 | 60 | 100 | – | – | –
CN(C(=O)c1cc(-c2cnn(-c3c(Cl)cc(C(F)(C(F)(F)F)C(F)(F)F)cc3Cl)c2)cnc1Cl)C1CC1 [CK2, reference compound] | 13.3 | 60 | 93.3 | – | – | –
CN(C(=O)c1cc(-c2cnn(-c3c(Cl)cc(C(F)(C(F)(F)F)C(F)(F)F)cc3Cl)c2)cnc1Cl)C1(C#N)CC1 [CK4, reference compound] | 20 | 56.7 | 90 | – | – | –
O=C(NC1CC1)c1cc(-c2cnn(-c3c(Cl)cc(C(F)(C(F)(F)F)C(F)(F)F)cc3Cl)c2)cnc1Cl [CK1, reference compound] | – | – | – | 20 | 66.7 | 100
